Assay results: US11180462B2, “Microbiocidal oxadiazole derivatives” (SYNGENTA PARTICIPATIONS AG, priority 2015, dated 2021)

Columns and labels:
[1] = test system: Phakopsora Pachyrhizi; assay: Fungicidal activity against Phakopsora pachyrhizi / soybean / leaf disc preventative (Asian soybean rust); type: in vivo; conditions: foliar, 200 ppm in the applied formulation, soybean leaf disks, compared to untreated control leaf disks, read-out: disease control
Method in brief: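 Scored 12 to 14 days post-application as percent control relative to untreated check discs, rust spores were sprayed under the disc one day after compound treatment. Incubation: 20°C, 75% rh, first 24–36 h in darkness, then 12 h daily light; discs kept on water agar.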

[2] = test system: Glomerella lagenarium (Colletotrichum lagenarium); assay: Fungicidal activity against Glomerella lagenarium (Colletotrichum lagenarium) liquid culture / cucumber / preventative (anthracnose); type: cell-based; conditions: Colletotrichum orbiculare; 20 ppm in the applied formulation; liquid culture (PDB), growth inhibition measured photometrically after 3 to 4 days; compared to untreated control; read-out: disease control
Method in brief: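 Percent activity against the untreated check was derived from photometric growth measurements made 2 to 7 days after conidia in potato dextrose broth were combined with compound at 20 ppm. Cultures were kept dark at 24 °C and 96% humidity.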

[3] = test system: Puccinia recondita f. Sp. Tritici; assay: Fungicidal activity against Puccinia recondita f. sp. tritici / wheat / leaf disc curative (brown rust); type: in vivo; conditions: foliar, 24 h, 200 ppm in the applied formulation, wheat leaf segments, curative (applied 1 day after inoculation), compared to untreated control leaf disks, read-out: disease control
Method in brief: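 Inoculate cv. Kanzler segments on agar; hold dark, 19° C, 75% RH. Spray diluted formulated compound at day 1. Incubate 12 h light/12 h dark, same temperature and humidity; score % control vs untreated 6–8 days later.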

[4] = test system: Puccinia recondita f. Sp. Tritici; assay: Fungicidal activity against Puccinia recondita f. sp. tritici / wheat / leaf disc preventative (brown rust); type: in vivo; conditions: foliar, 200 ppm in the applied formulation, wheat leaf segments, preventative, compared to untreated control leaf disks, read-out: disease control
Method in brief: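 200 ppm spray on wheat cv. Kanzler leaf segments; spore inoculation +1 day; 19° C., 75% rh, 12 h/12 h light cycle; single rating of % control vs untreated at 7 to 9 days.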

C#CCN(Cc1ccc(-c2noc(C(F)(F)F)n2)cc1)C(=O)CCC=C [Compound 1.159, N-prop-2-ynyl-N-[[4-[5-(trifluoromethyl)-1,2,4-oxadiazol-3-yl]phenyl]methyl]-pent-4-enamide]
≥ 80%: pest or weed control at 200 ppm [1] | inhibition of growth at 20 ppm [2] | pest or weed control at 200 ppm [3] | pest or weed control at 200 ppm [4]

CCCN(Cc1ccc(-c2noc(C(F)(F)F)n2)cc1)C(=O)C1CCC1 [Compound 1.656, N-propyl-N-[[4-[5-(trifluoromethyl)-1,2,4-oxadiazol-3-yl]phenyl]methyl]-cyclobutane-carboxamide]
≥ 80%: pest or weed control at 200 ppm [1] | inhibition of growth at 20 ppm [2] | pest or weed control at 200 ppm [3] | pest or weed control at 200 ppm [4]

CC(C)N(Cc1ccc(-c2noc(C(F)(F)F)n2)cc1)C(=O)CC1CC1 [Compound 1.688, 2-cycloopropyl-N-isopropyl-N-[[4-[5-(trifluoromethyl)-1,2,4-oxadiazol-3-yl]phenyl]methyl]-acetamide]
≥ 80%: pest or weed control at 200 ppm [1] | inhibition of growth at 20 ppm [2] | pest or weed control at 200 ppm [3] | pest or weed control at 200 ppm [4]

CON(Cc1ccc(-c2noc(C(F)(F)F)n2)cc1)C(=O)CC1CC1 [Compound 1.26, 2-cyclopropyl-N-methoxy-N-[[4-[5-(trifluoromethyl)-1,2,4-oxadiazol-3-yl]phenyl]methyl]-acetamide]
≥ 80%: pest or weed control at 200 ppm [1] | inhibition of growth at 20 ppm [2] | pest or weed control at 200 ppm [3] | pest or weed control at 200 ppm [4]

CC(=O)N(O)Cc1ccc(-c2noc(C(F)(F)F)n2)cc1 [Compound 1.773, N-hydroxy-N-[[4-[5-(trifluoromethyl)-1,2,4-oxadiazol-3-yl]phenyl]methyl]-acetamide]
≥ 80%: pest or weed control at 200 ppm [1] | inhibition of growth at 20 ppm [2] | pest or weed control at 200 ppm [3] | pest or weed control at 200 ppm [4]

CON(C(=O)C1CCCO1)C(C)c1ccc(-c2noc(C(F)(F)F)n2)cc1 (stereo not shown) [Compound 1.273, N-methoxy-N-[1-[4-[5-(trifluoromethyl)-1,2,4-oxadiazol-3-yl]phenyl]ethyl]-tetrahydrofuran-2-carboxamide]
≥ 80%: pest or weed control at 200 ppm [1] | inhibition of growth at 20 ppm [2] | pest or weed control at 200 ppm [3] | pest or weed control at 200 ppm [4]

CCN(Cc1ccc(-c2noc(C(F)(F)F)n2)cc1)C(=O)C(C)OC (stereo not shown) [Compound 1.512, N-ethyl-2-methoxy-N-[[4-[5-(trifluoromethyl)-1,2,4-oxadiazol-3-yl]phenyl]methyl]-propanamide]
≥ 80%: pest or weed control at 200 ppm [1] | inhibition of growth at 20 ppm [2] | pest or weed control at 200 ppm [3] | pest or weed control at 200 ppm [4]

O=C(C1CC1)N(Cc1ccc(-c2noc(C(F)(F)F)n2)cc1)C1CC1 [Compound 1.149, N-cyclopropyl-N-[[4-[5-(trifluoromethyl)-1,2,4-oxadiazol-3-yl]phenyl]methyl]-cyclopropane-carboxamide]
≥ 80%: pest or weed control at 200 ppm [1] | inhibition of growth at 20 ppm [2] | pest or weed control at 200 ppm [3] | pest or weed control at 200 ppm [4]

COCCCC(=O)N(Cc1ccc(-c2noc(C(F)(F)F)n2)cc1)OC [Compound 1.59, N,4-dimethoxy-N-[[4-(5-(trifluoromethyl)-1,2,4-oxadiazol-3-yl]phenyl]methyl]-butanamide]
≥ 80%: pest or weed control at 200 ppm [1] | inhibition of growth at 20 ppm [2] | pest or weed control at 200 ppm [3] | pest or weed control at 200 ppm [4]

O=C(C1CCCC1)N(Cc1ccc(-c2noc(C(F)(F)F)n2)cc1)C1CC1 [Compound 1.100, N-cyclopropyl-N-[[4-[5-(trifIuoromethyl)-1,2,4-oxadiazol-3-yl]phenyl]methyl]-cyclopentane-carboxamide]
≥ 80%: pest or weed control at 200 ppm [1] | inhibition of growth at 20 ppm [2] | pest or weed control at 200 ppm [3] | pest or weed control at 200 ppm [4]

CN(Cc1ccc(-c2noc(C(F)(F)F)n2)cc1)C(=O)C1CC1F (stereo not shown) [Compound 1.529, 2-fluoro-N-methyl-N-[[4-[5-(trifluoromethyl)-1,2,4-oxadiazol-3-yl]phenyl]methyl]-cyclopropane-carboxamide]
≥ 80%: pest or weed control at 200 ppm [1] | inhibition of growth at 20 ppm [2] | pest or weed control at 200 ppm [3] | pest or weed control at 200 ppm [4]

COCCN(Cc1ccc(-c2noc(C(F)(F)F)n2)cc1)C(=O)C1CCCCO1 (stereo not shown) [Compound 1.324, N-(2-methoxyethyl)-N-[[4-[5-(trifluoromethyl)-1,2,4-oxadiazol-3-yl]phenyl]methyl]-tetrahydropyran-2-carboxamide]
≥ 80%: pest or weed control at 200 ppm [1] | inhibition of growth at 20 ppm [2] | pest or weed control at 200 ppm [3] | pest or weed control at 200 ppm [4]

COCCCC(=O)OCCN(Cc1ccc(-c2noc(C(F)(F)F)n2)cc1)C(=O)CCCOC [Compound 1.725, 2-[4-methoxybutanoyl-[[4-[5-(trifluoromethyl)-1,2,4-oxadiazol-3-yl]phenyl]methyl]-amino]ethyl 4-methoxybutanoate]
≥ 80%: pest or weed control at 200 ppm [1] | inhibition of growth at 20 ppm [2] | pest or weed control at 200 ppm [3] | pest or weed control at 200 ppm [4]

COCC(=O)N(Cc1ccc(-c2noc(C(F)(F)F)n2)cc1)C1COC1 [Compound 1.613, 2-methoxy-N-(oxetan-3-yl)-N-[[4-[5-(trifluoromelhyl)-1,2,4-oxadiazol-3-yl]phenyl]methyl]-acetamide]
≥ 80%: pest or weed control at 200 ppm [1] | inhibition of growth at 20 ppm [2] | pest or weed control at 200 ppm [3] | pest or weed control at 200 ppm [4]

CCC(=O)N(Cc1ccc(-c2noc(C(F)(F)F)n2)cc1)C(C)C [Compound 1.589, N-isopropyl-N-[[4-[5-(trifluoromethyl)-1,2,4-oxadiazol-3-yl]phenyl]methyl]-propanamide]
≥ 80%: pest or weed control at 200 ppm [1] | inhibition of growth at 20 ppm [2] | pest or weed control at 200 ppm [3] | pest or weed control at 200 ppm [4]

COCCC(=O)N(Cc1ccc(-c2noc(C(F)(F)F)n2)cc1)C1CC1 [Compound 1.106, N-cyclopropyl-3-methoxy-N-[[4-[5-(trifluoromethyl)-1,2,4-oxadiazol-3-yl]phenyl]methyl]-propanamide]
≥ 80%: pest or weed control at 200 ppm [1] | inhibition of growth at 20 ppm [2] | pest or weed control at 200 ppm [3] | pest or weed control at 200 ppm [4]
